Measured values: BindingDB's records for doi:10.1021/jm020999w (University of Firenze, 2003)

Biological target: Gamma-aminobutyric acid receptor subunit alpha-1/beta-2/gamma-2 (Rattus norvegicus, UniProt P62813+P63138+P18508)
Assay: Binding affinity for recombinant rat GABA-A receptor alpha-1-beta-2-gamma-2 subunits expressed in HEK293 cells

Sequence of Gamma-aminobutyric acid receptor subunit alpha-1/beta-2/gamma-2 (P62813 whole entry): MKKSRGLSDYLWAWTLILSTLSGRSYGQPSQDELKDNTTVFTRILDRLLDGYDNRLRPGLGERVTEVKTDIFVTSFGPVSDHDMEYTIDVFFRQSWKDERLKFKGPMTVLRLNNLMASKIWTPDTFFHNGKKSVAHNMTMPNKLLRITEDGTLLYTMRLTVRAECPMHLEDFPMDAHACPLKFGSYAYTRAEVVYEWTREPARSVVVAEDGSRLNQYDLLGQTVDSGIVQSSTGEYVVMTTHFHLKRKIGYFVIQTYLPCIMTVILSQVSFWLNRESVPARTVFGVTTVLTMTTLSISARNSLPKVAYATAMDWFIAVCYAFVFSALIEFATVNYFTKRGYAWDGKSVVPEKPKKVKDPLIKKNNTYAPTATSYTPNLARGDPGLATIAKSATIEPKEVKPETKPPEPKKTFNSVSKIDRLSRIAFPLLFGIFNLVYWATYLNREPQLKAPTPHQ
Sequence of Gamma-aminobutyric acid receptor subunit alpha-1/beta-2/gamma-2 (P63138 whole entry): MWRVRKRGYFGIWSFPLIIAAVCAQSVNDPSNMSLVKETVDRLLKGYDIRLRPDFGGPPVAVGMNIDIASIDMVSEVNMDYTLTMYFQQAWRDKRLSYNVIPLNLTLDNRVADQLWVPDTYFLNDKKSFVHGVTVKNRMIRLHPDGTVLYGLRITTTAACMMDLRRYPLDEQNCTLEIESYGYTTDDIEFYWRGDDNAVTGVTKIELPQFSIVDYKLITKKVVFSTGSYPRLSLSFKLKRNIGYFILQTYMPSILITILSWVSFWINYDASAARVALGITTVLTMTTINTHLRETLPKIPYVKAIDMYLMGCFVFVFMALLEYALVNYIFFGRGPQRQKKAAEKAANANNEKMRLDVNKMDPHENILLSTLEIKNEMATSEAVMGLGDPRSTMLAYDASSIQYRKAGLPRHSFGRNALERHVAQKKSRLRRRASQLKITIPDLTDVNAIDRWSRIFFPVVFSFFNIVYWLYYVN
Sequence of Gamma-aminobutyric acid receptor subunit alpha-1/beta-2/gamma-2 (P18508 whole entry): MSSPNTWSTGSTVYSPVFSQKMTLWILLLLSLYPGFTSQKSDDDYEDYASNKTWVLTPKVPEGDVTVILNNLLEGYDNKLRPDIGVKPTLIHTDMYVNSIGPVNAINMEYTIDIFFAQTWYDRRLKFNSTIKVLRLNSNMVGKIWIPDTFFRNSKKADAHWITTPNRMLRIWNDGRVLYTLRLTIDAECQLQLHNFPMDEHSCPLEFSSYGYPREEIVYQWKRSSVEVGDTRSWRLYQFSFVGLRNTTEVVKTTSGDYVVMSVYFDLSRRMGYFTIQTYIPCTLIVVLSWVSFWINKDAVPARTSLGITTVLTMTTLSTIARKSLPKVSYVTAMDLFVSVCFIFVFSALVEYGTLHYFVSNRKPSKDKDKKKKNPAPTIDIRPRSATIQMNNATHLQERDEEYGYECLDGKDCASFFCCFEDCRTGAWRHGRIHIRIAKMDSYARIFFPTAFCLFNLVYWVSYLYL

Ki | Compound
0.01 µM | O=c1c(-c2ccsc2)cnc2c(-c3cccc(Br)c3)c[nH]n12 [3-(3-Bromo-phenyl)-6-thiophen-3-yl-4H-pyrazolo[1,5-a]pyrimidin-7-one]
0.01 µM | O=c1c(-c2ccsc2)cnc2c(-c3cccc(C(F)(F)F)c3)c[nH]n12 [6-Thiophen-3-yl-3-(3-trifluoromethyl-phenyl)-4H-pyrazolo[1,5-a]pyrimidin-7-one]
